Data on one compound can be found in patent publication US4093574A, “Somatostatin analogs and intermediates thereto” (Eli Lilly and Company, priority 1977, dated 1978).

The test system of assay [1] is glucagon and insulin secretion. The assay can be described thus: in vivo inhibition of glucagon and insulin secretion upon stimulation with L-alanine. As to conditions: fasted dogs, intravenous infusion. Further details: species or system mongrel dogs. The procedure:
D-Ser^2, D-Trp^8 -somatostatin was tested for its in vivo activity in inhibiting glucagon and insulin secretion upon stimulation with L-alanine. Normal mongrel dogs of either sex were fasted overnight. Control blood samples were obtained, and then an intravenous infusion of saline, somatostatin, or D-Ser^2, D-Trp^8 -somatostatin was started. After 30 minutes, L-alanine additionally was administered intravenously for a period of 15 minutes. The infusion of saline, somatostatin, or D-Ser^2, D-Trp^8 -somatostatin was continued for 15 minutes after completion of the L-alanine infusion. From the above it was determined that the minimal effective concentration of D-Ser^2, D-Trp^8 -somatostatin is about 25 nanograms/kg./min. whereas the minimal effective concentration of somatostatin is about 100 nanograms/kg./min.

Assay [2] relates to gastric HCl secretion induced by the C-terminal tetrapeptide of gastrin. Nature of the assay: in vivo inhibition of gastric acid secretion in dogs with chronic fistula and Heidenhain pouch. As for the experimental part:
D-Ser^2, D-Trp^8 -somatostatin was tested in dogs for its in vivo inhibition of gastric acid secretion. In six dogs with chronic fistula and Heidenhain pouch, gastric HCl secretion was induced by infusion of the C-terminal tetrapeptide of gastrin at 0.5 μg/kg-hr. Each dog served as its own control, receiving on a separate day only the tetrapeptide. On another day, the six dogs received the tetrapeptide, and, after one hour of steady state secretion of HCl, D-Ser^2, D-Trp^8 -somatostatin was infused at 0.20 μg/kg-hr. for one hour. Collection of gastric acid samples was continued for an additional 1.5 hours at 15 minute intervals. The samples were titrated to pH 7 with an automatic titrator. The maximal inhibitory effect of the D-Ser^2, D-Trp^8 -somatostatin was extrapolated against the dose-response curve of somatostatin, and the relative potency of the analog to that of somatostatin is expressed as percent activity. D-Ser^2, D-Trp^8 -somatostatin inhibited steady state acid secretion induced by the C-terminal tetrapeptide of gastrin by 73.5 ± 4.8% standard error of mean. This effect is equivalent to that of 0.545 μg/kg-hr. of somatostatin. Its activity relative to that of somatostatin thus is 273%.

Assay [3] relates to growth hormone secretion. The assay can be described thus: release of growth hormone in sodium pentobarbital-stimulated rats. It counts as in vivo, male Spraque-Dawley rats. The following applies: serum GH at 20 minutes. The procedure: D-Ser^2, D-Trp^8 -somatostatin also was tested for its activity with respect to the release of growth hormone. The procedure which was employed is carried out using male Spraque-Dawley rats weighing 100-120 grams (Laboratory Supply Company, Indianapolis, Ind.). The test is a modification of the method of P. Brazeau, W. Vale, and R. Guilleman, Endocrinology, 94 184 (1974). In this assay, five groups of eight rats each were employed. Sodium pentobarbital was administered intraperitoneally to all of the rats to stimulate growth hormone secretion. One group served as the control and received only saline. Two of the groups received somatostatin, one at 2 μg./rat, subcutaneously, and the other at 50 μg./rat, subcutaneously. The other two groups received D-Ser^2, D-Trp^8 -somatostatin, one at 2 μg./rat, subcutaneously, and the other at 50 μg./rat, subcutaneously. The serum concentration of growth hormone was measured 20 minutes after simultaneous administration of sodium pentobarbital and test compound. The degree of inhibition of serum growth hormone concentration then was determined with respect to the control group, and the relative activities of D-Ser^2, D-Trp^8 -somatostatin and somatostatin itself were compared. […]

Assay [4] deals with pancreatic secretion. Nature of the assay: inhibition of pancreatic secretion in dogs with pancreatic and total gastric fistula. The assay is classed as in vivo. The procedure:
In three dogs having both pancreatic and total gastric fistula, secretion from the pancreas was induced by infusion of […] at 2 units/kg-hr. and cholecystokinin at 0.45 unit/kg-hr., and gastric HCl by infusion of tetragastrin at 0.5 μg/kg-hr. After a steady response was established, each dog received D-Ser^2, D-Trp^8 -somatostatin for one hour at 0.2 μg/kg-hr. The peak inhibitory effect expressed as percent change over control for total protein was -76%. This corresponds to the inhibitory effect obtained by administration of about 0.6 μg/kg-hr. of somatostatin.

Assay [5] relates to gut motility. Nature of the assay: action on gut motility in conscious dogs (intralumenal pressure). The assay is classed as in vivo. The following applies: intravenous infusion over ten minutes, pylorus, duodenum, antrum. The procedure:
D-Ser^2, D-Trp^8 -somatostatin also was tested for its action on gut motility in conscious dogs. Three dogs having intralumenal catheters placed in the antrum, duodenum, and pylorus were used. Pressure changes in the gut lumen were recorded on a Visicorder using strain gauges and miniature light beam galvanometers. After a steady state control was established, D-Ser^2, D-Trp^8 -somatostatin was infused intravenously over a ten minute period. […] This compared to a minimum effective dose of 0.125-0.25 μg./kg.--10 minutes for somatostatin itself.

The structures appear in SMILES notation. Where a SMILES comes first, the peptide text is derived from it. Bridges are numbered along the chain shown (N, C = ends). [ ]: non-standard residue; d: D form.

Turning to `C[C@H](N)C(=O)N[C@H](CO)C(=O)N[C@H]1CSSC[C@@H](C(=O)O)NC(=O)[C@H](CO)NC(=O)[C@H]([C@@H](C)O)NC(=O)[C@H](Cc2ccccc2)NC(=O)[C@H]([C@@H](C)O)NC(=O)[C@H](CCCCN)NC(=O)[C@@H](Cc2c[nH]c3ccccc23)NC(=O)[C@H](Cc2ccccc2)NC(=O)[C@H](Cc2ccccc2)NC(=O)[C@H](CC(N)=O)NC(=O)[C@H](CCCCN)NC1=O` [D-Ser^2, D-Trp^8 -somatostatin] (H-A[dS]CKNFF[dW]KTFTSC-OH; disulfide 3-14), the “minimal effective concentration for inhibiting glucagon and insulin secretion” value in assay [1] is “about 25 nanograms/kg./min”. Besides, in assay [2] (analog at 0.20 μg/kg-hr., extrapolated against dose-response curve of somatostatin), the “dose of somatostatin with equivalent effect on acid secretion” value was 0.545 μg/kg-hr. Besides, the “inhibition of steady state acid secretion induced by the C-terminal tetrapeptide of gastrin” value in assay [2] (infused at 0.20 μg/kg-hr. for one hour, ± standard error of mean) stood at 73.5 ± 4.8%. In addition, in assay [2] (relative potency expressed as percent activity), the “activity relative to that of somatostatin (gastric acid secretion)” value is 273%. In addition, the “inhibition of growth hormone secretion over control” value was “same effect on growth hormone secretion as somatostatin” in assay [3] (2 μg./rat subcutaneously) and 66% in assay [3] (50 μg./rat subcutaneously). The “peak inhibitory effect, percent change over control for total protein” value in assay [4] (0.2 μg/kg-hr for one hour, pancreatic secretion induced by secretin and cholecystokinin) is recorded as -76%. Also, the “dose of somatostatin giving corresponding inhibitory effect on pancreatic secretion” value in assay [4] (analog at 0.2 μg/kg-hr) is on record as “about 0.6 μg/kg-hr”. Besides, in assay [5], the “effect on intralumenal pressure” value was “initially increased the intralumenal pressure in the pylorus and then decreased it whereas the pressure in the duodenum and the antrum remained depressed throughout the test”.
